Patent US20230002446A1, “ANTI-INFLAMMATORY AGENTS” (The University of Sydney, priority 2019, published 2023)
Where a SMILES comes first, the peptide text is derived from it. [ ]: non-standard residue; d: D form. AEEA = NCCOCCOCC(=O)O

Tested on: C57BL/6 mice
Assay: contact hypersensitivity model (DNFB-induced contact dermatitis)
Format: in vivo
Procedure: FIG. 2—Peptide administration reduces inflammation in a mouse model of contact dermatitis and reduces myeloid inflammatory infiltrate. (A) Experimental outline of DNFB-induced contact dermatitis. (B) Ear thickness of peptide RP23 (SEQ ID NO:12) treated mice, repeated 3 times. […] Data are presented as mean±S.E.M. Statistical significance was determined (B) by multiple t tests (C) by ANOVA with Dunnett's multiple comparison test, *p<0.05, **p<0.01, ***p<0.001.
FIG. 3—The peptide effect is dependent on the peptide sequence and dose. (A) PBS, scrambled peptide or peptide MUC1SP ([…]; SEQ ID NO: 3) was injected subcutaneously seven days prior to sensitising C57BL/6 mice (n=5) with DNFB on the abdomen. […] (B) A comparison of the immunosuppressive effect of peptide RP23 (SEQ ID NO:12) and MUC1SP (SEQ ID NO: 3). (C) SEQ ID NO:12 suppressed immunity in a dose dependent manner. (D) Addition of GM-CSF to the SEQ ID NO:12 injection abrogated the immune suppression. Data are the means±S.E.M.
FIG. 8—Effects of peptide variants on the inflammatory response. Mice received one injection of PBS or one of the following peptides (10 nmol) subcutaneously at the abdomen (A) peptide RP23 (SEQ ID NO: 12), peptide AF594-RP23 (SEQ ID NO: 21), peptide K4-G3-MUC1SP (SEQ ID NO:22) or MUC1SP C fragment (SEQ ID NO: 2). Five days later, mice were challenged with DNFB at a distal site, on the ears. The thickness of the ears was measured over 72 hours.
FIG. 9—Effects of further peptide variants, without N-terminal methionine, on the inflammatory response in a model of contact dermatitis. Mice received one injection of PBS, RP23 (SEQ ID NO:12) (10 nmol) or one of the peptide variants indicated in the table including SEQ ID NO: 32 and 35 as described herein (equivalent molar amount of RP23), subcutaneously at the abdomen. Photoleucine replaces leucine where indicated, these molecules used for photo-crosslinking studies. Seven days later, abdominal skin was sensitised with a contact irritant (DNFB) and five days later, mice were challenged with DNFB at a distal site, on the ears. (A) Specific increase in ear thickness over 72 hours, data are the means+/−SEM (n=6). Statistical significance was determined by ANOVA with Dunnett's multiple comparison test to PBS only control, **p<0.01. (B) Specific increase in ear thickness at 24 hours post-challenge. Data are the means+/−SEM (n=6). Statistical significance was determined by t-test to relevant control, as indicated, *p<0.05, **p<0.01, ns=not significant.
The abdomens of 8-week old female C57BL/6 mice (Australian BioResources) were coarse shaved. A minimum of 24 hours later, RP23 (SEQ ID NO:12) was delivered via sub-cutaneous injection at the abdomen in 50 μl phosphate buffered saline. Seven days later, mice were topically sensitised to 1-fluoro-2,4-dinitrobenzene (DNFB, 0.5 vol %) in olive oil/acetone (1:4, v/v, 30 μl) via application to the shaved abdomen. Five days after sensitisation, mice were challenged on the ears with topical DNFB (0.25 vol %) in olive oil/acetone (1:4, v/v, 15 μl per ear). Ear thickness was measured daily using manual callipers from immediately before challenge, up to 96 hours post challenge. Positive controls for ear swelling consisted of mice that were injected with PBS instead of RP23. Negative or irritant controls consisted of a group of mice that received the DNFB challenge, but not the sensitisation. The average of the change in ear thickness from this control group was subtracted from the change in ear thickness of other samples to account for non-specific irritation due to the application of DNFB, olive oil and acetone.
The inventors then conducted additional in vivo studies, using a model of contact hypersensitivity, to determine the portion of RP23 responsible for its immunomodulatory activity. Mice received one injection of peptide (10 nmol) subcutaneously at the abdomen, seven days prior to sensitisation of the skin with a contact irritant (DNFB). […]

SMILES: CSCC[C@H](NC(=O)COCCOCCNC(=O)[C@H](CCCCN)NC(=O)[C@H](CCCCN)NC(=O)[C@H](CCCCN)NC(=O)[C@@H](N)CCCCN)C(=O)N[C@H](C(=O)N1CCC[C@H]1C(=O)NCC(=O)N[C@H](C(=O)N[C@@H](CCC(N)=O)C(=O)N[C@@H](CO)C(=O)N1CCC[C@H]1C(=O)N[C@@H](Cc1ccccc1)C(=O)N[C@@H](Cc1ccccc1)C(=O)N[C@@H](CC(C)C)C(=O)N[C@@H](CC(C)C)C(=O)N[C@@H](CC(C)C)C(=O)N[C@@H](CC(C)C)C(=O)N[C@@H](CC(C)C)C(=O)N[C@H](C(=O)N[C@H](C(=O)N[C@@H](CC(C)C)C(=O)N[C@H](C(=O)N[C@H](C(=O)N[C@H](C(=O)O)C(C)C)C(C)C)[C@@H](C)O)C(C)C)[C@@H](C)O)[C@@H](C)O)[C@@H](C)O [RP23] (H-KKKK[AEEA]MTPGTQSPFFLLLLLTVLTVV-OH)
- inflammatory response (ear thickness over 72 hours) (10 nmol subcutaneously at the abdomen, compared to PBS (FIG. 8)): led to a reduced inflammatory response
- immune suppression compared to SEQ ID NO: 3 (MUC1SP) (FIG. 3b): without significantly altering immune suppression
- suppression of ear swelling with GM-CSF included (GM-CSF added to the injection (FIG. 3d)): abrogated much of the suppression
- reduction in ear swelling compared to controls (dose-response, 2, 5 or 10 nmol): up to 100%
- elicitation of inflammation (ear thickness) (single nanomolar injection prior to sensitisation): significantly suppress elicitation of inflammation
- inflammatory myeloid cell skin infiltrate (single nanomolar injection prior to sensitisation, flow cytometry 72 hours post challenge): reduction
